Assay results reported in ChEMBL document CHEMBL5625252, “Synthesis of peptidomimetics as antibiotic adjuvants for combination with aztreonam to combat MDR Pseudomonas aeruginosa” (Eur J Med Chem, 2023).
Converted amounts (≈) assume the structure as drawn. The source made the active and inactive calls. The rule behind the calls is not given here.

Experiments:
Pseudomonas aeruginosa [1] = assay: Antibacterial activity against Pseudomonas aeruginosa 16-11 in CAMH broth medium supplemented with 0.41 to 0.51 mM Mg2+ by checkerboard assay; type: functional
Escherichia coli [2] = assay: Antibacterial activity against ESBLs (-) Escherichia coli ATCC 25922 assessed as inhibition of bacterial growth incubated for 18 hrs by agar dilution method; type: functional
Escherichia coli [3] = assay: Antibacterial activity against NDM-1 (+) Escherichia coli CDC 1001728 assessed as inhibition of bacterial growth incubated for 18 hrs by agar dilution method; type: functional
Escherichia coli [4] = assay: Antibacterial activity against ESBLs (+) Escherichia coli 16-1 assessed as inhibition of bacterial growth incubated for 18 hrs by agar dilution method; type: functional
Escherichia coli [5] = assay: Antibacterial activity against mcr-1 (+) Escherichia coli 08-85 assessed as inhibition of bacterial growth incubated for 18 hrs by agar dilution method; type: functional
Klebsiella pneumoniae [6] = assay: Antibacterial activity against ESBLs (+) Klebsiella pneumoniae ATCC 700603 assessed as inhibition of bacterial growth incubated for 18 hrs by agar dilution method; type: functional
Klebsiella pneumoniae [7] = assay: Antibacterial activity against NDM-1 (+) Klebsiella pneumoniae 2146 assessed as inhibition of bacterial growth incubated for 18 hrs by agar dilution method; type: functional
Klebsiella pneumoniae [8] = assay: Antibacterial activity against ESBLs (+) Klebsiella pneumoniae 16-14 assessed as inhibition of bacterial growth incubated for 18 hrs by agar dilution method; type: functional
Klebsiella pneumoniae [9] = assay: Antibacterial activity against NDM-1 (+) Klebsiella pneumoniae 09-20 assessed as inhibition of bacterial growth incubated for 18 hrs by agar dilution method; type: functional
Pseudomonas aeruginosa [10] = assay: Antibacterial activity against BL (+) Pseudomonas aeruginosa ATCC 27853 assessed as inhibition of bacterial growth incubated for 18 hrs by agar dilution method; type: functional
Pseudomonas aeruginosa [11] = assay: Antibacterial activity against Pseudomonas aeruginosa PAO1 assessed as inhibition of bacterial growth incubated for 18 hrs by agar dilution method; type: functional
Pseudomonas aeruginosa [12] = assay: Antibacterial activity against Pseudomonas aeruginosa 16-11 assessed as inhibition of bacterial growth incubated for 18 hrs by agar dilution method; type: functional
Pseudomonas aeruginosa [13] = assay: Antibacterial activity against Pseudomonas aeruginosa 13-35 assessed as inhibition of bacterial growth incubated for 18 hrs by agar dilution method; type: functional
Pseudomonas aeruginosa [14] = assay: Antibacterial activity against Pseudomonas aeruginosa 23-Y122 assessed as inhibition of bacterial growth incubated for 18 hrs by agar dilution method; type: functional
Pseudomonas aeruginosa [15] = assay: Antibacterial activity against Pseudomonas aeruginosa 23-Y372 assessed as inhibition of bacterial growth incubated for 18 hrs by agar dilution method; type: functional
Pseudomonas aeruginosa [16] = assay: Antibacterial activity against Pseudomonas aeruginosa 23-Y511 assessed as inhibition of bacterial growth incubated for 18 hrs by agar dilution method; type: functional
Pseudomonas aeruginosa [17] = assay: Antibacterial activity against Pseudomonas aeruginosa 12-1 assessed as inhibition of bacterial growth incubated for 18 hrs by agar dilution method; type: functional
Pseudomonas aeruginosa [18] = assay: Antibacterial activity against Pseudomonas aeruginosa 13-3 assessed as inhibition of bacterial growth incubated for 18 hrs by agar dilution method; type: functional
Pseudomonas aeruginosa [19] = assay: Antibacterial activity against Pseudomonas aeruginosa 13-17 assessed as inhibition of bacterial growth incubated for 18 hrs by agar dilution method; type: functional
Pseudomonas aeruginosa [20] = assay: Antibacterial activity against Pseudomonas aeruginosa 21-2 assessed as inhibition of bacterial growth incubated for 18 hrs by agar dilution method; type: functional
Pseudomonas aeruginosa [21] = assay: Antibacterial activity against Pseudomonas aeruginosa 23-Y539 assessed as inhibition of bacterial growth incubated for 18 hrs by agar dilution method; type: functional
Pseudomonas aeruginosa [22] = assay: Antibacterial activity against Pseudomonas aeruginosa 19-46 assessed as inhibition of bacterial growth incubated for 18 hrs by agar dilution method; type: functional
Pseudomonas aeruginosa [23] = assay: Antibacterial activity against Pseudomonas aeruginosa 19-55 assessed as inhibition of bacterial growth incubated for 18 hrs by agar dilution method; type: functional
Pseudomonas aeruginosa [24] = assay: Antibacterial activity against Pseudomonas aeruginosa 21-7 assessed as inhibition of bacterial growth incubated for 18 hrs by agar dilution method; type: functional
Pseudomonas aeruginosa [25] = assay: Antibacterial activity against Pseudomonas aeruginosa 23-Y364 assessed as inhibition of bacterial growth incubated for 18 hrs by agar dilution method; type: functional
Pseudomonas aeruginosa [26] = assay: Antibacterial activity against Pseudomonas aeruginosa PAO1 at 2 ug/ml measured upto 24 hrs by time-kill assay; type: functional, organism-based; conditions: dose 2.0 µg/ml
Pseudomonas aeruginosa [27] = assay: Antibacterial activity against Pseudomonas aeruginosa 16-2 at 16 ug/ml measured upto 24 hrs by time-kill assay; type: functional, organism-based; conditions: dose 16.0 µg/ml
Pseudomonas aeruginosa [28] = assay: Antibacterial activity against Pseudomonas aeruginosa PAO1 infected in Galleria mellonella assessed as increase in larvae survival at 25 mg/kg measured every 12 hrs; type: functional, organism-based
Pseudomonas aeruginosa [29] = assay: Antibacterial activity against Pseudomonas aeruginosa 16-2 infected in Galleria mellonella assessed as larvae survival rate at 50 mg/kg after 96 hrs of innoculation; type: functional
Pseudomonas aeruginosa [30] = assay: Antibacterial activity against Pseudomonas aeruginosa PAO1 in CAMH broth medium supplemented with 0.41 to 0.51 mM Mg2+ by checkerboard assay; type: functional
Pseudomonas aeruginosa [31] = assay: Antibacterial activity against Pseudomonas aeruginosa 13-35 in CAMH broth medium supplemented with 0.41 to 0.51 mM Mg2+ by checkerboard assay; type: functional
Pseudomonas aeruginosa [32] = assay: Antibacterial activity against Pseudomonas aeruginosa 12-1 in CAMH broth medium supplemented with 0.41 to 0.51 mM Mg2+ by checkerboard assay; type: functional
Pseudomonas aeruginosa [33] = assay: Antibacterial activity against Pseudomonas aeruginosa PAO1 in CAMH broth medium supplemented with 20.99 to 21.09 mM Mg2+ by checkerboard assay; type: functional
Pseudomonas aeruginosa [34] = assay: Antibacterial activity against Pseudomonas aeruginosa 16-11 in CAMH broth medium supplemented with 20.99 to 21.09 mM Mg2+ by checkerboard assay; type: functional
Pseudomonas aeruginosa [35] = assay: Antibacterial activity against Pseudomonas aeruginosa 13-35 in CAMH broth medium supplemented with 20.99 to 21.09 mM Mg2+ by checkerboard assay; type: functional
Pseudomonas aeruginosa [36] = assay: Antibacterial activity against Pseudomonas aeruginosa 12-1 in CAMH broth medium supplemented with 20.99 to 21.09 mM Mg2+ by checkerboard assay; type: functional
Pseudomonas aeruginosa [37] = assay: Antibacterial activity against Pseudomonas aeruginosa 21-8 assessed as inhibition of bacterial growth incubated for 18 hrs by agar dilution method; type: functional
Pseudomonas aeruginosa [38] = assay: Antibacterial activity against Pseudomonas aeruginosa 23-Y417 assessed as inhibition of bacterial growth incubated for 18 hrs by agar dilution method; type: functional; conditions: read-out: MIC
Pseudomonas aeruginosa [39] = assay: Antibacterial activity against Pseudomonas aeruginosa 16-2 assessed as inhibition of bacterial growth incubated for 18 hrs by agar dilution method; type: functional

C[C@H]1[C@H](NC(=O)/C(=N\OC(C)(C)C(=O)O)c2csc(N)n2)C(=O)N1S(=O)(=O)O [AZTREONAM]
MIC (Pseudomonas aeruginosa [1]): 8 µg/mL
MIC (Escherichia coli [2]): 0.06 µg/mL (≈ 0.138 µM)
MIC (Escherichia coli [3]): 4 µg/mL (≈ 9.19 µM)
MIC (Escherichia coli [4]): ≤ 0.03 µg/mL
MIC (Escherichia coli [5]): 4 µg/mL (≈ 9.19 µM)
MIC (Klebsiella pneumoniae [6]): 32 µg/mL (≈ 73.5 µM)
MIC (Klebsiella pneumoniae [7]): > 128 µg/mL
MIC (Klebsiella pneumoniae [8]): 4 µg/mL (≈ 9.19 µM)
MIC (Klebsiella pneumoniae [9]): 0.25 µg/mL (≈ 0.574 µM)
MIC (Pseudomonas aeruginosa [10]): 4 µg/mL (≈ 9.19 µM)
MIC (Pseudomonas aeruginosa [11]): 8 µg/mL (≈ 18.4 µM)
MIC (Pseudomonas aeruginosa [12]): 8 µg/mL (≈ 18.4 µM)
MIC (Pseudomonas aeruginosa [13]): 32 µg/mL (≈ 73.5 µM)
MIC (Pseudomonas aeruginosa [14]): 32 µg/mL (≈ 73.5 µM)
MIC (Pseudomonas aeruginosa [15]): 32 µg/mL (≈ 73.5 µM)
MIC (Pseudomonas aeruginosa [16]): 32 µg/mL (≈ 73.5 µM)
MIC (Pseudomonas aeruginosa [17]): 64 µg/mL (≈ 147 µM)
MIC (Pseudomonas aeruginosa [18]): 64 µg/mL (≈ 147 µM)
MIC (Pseudomonas aeruginosa [19]): 64 µg/mL (≈ 147 µM)
MIC (Pseudomonas aeruginosa [20]): 64 µg/mL (≈ 147 µM)
MIC (Pseudomonas aeruginosa [21]): 64 µg/mL (≈ 147 µM)
MIC (Pseudomonas aeruginosa [22]): 128 µg/mL (≈ 294 µM)
MIC (Pseudomonas aeruginosa [23]): 128 µg/mL (≈ 294 µM)
MIC (Pseudomonas aeruginosa [24]): > 256 µg/mL
MIC (Pseudomonas aeruginosa [25]): > 256 µg/mL
Activity (Pseudomonas aeruginosa [26]): inactive
Activity (Pseudomonas aeruginosa [27]): inactive
Activity (Pseudomonas aeruginosa [28]): inactive
Activity (Pseudomonas aeruginosa [29]): 30%
MIC (Pseudomonas aeruginosa [30]): 8 µg/mL
MIC (Pseudomonas aeruginosa [31]): 32 µg/mL
MIC (Pseudomonas aeruginosa [32]): 64 µg/mL
MIC (Pseudomonas aeruginosa [33]): 8 µg/mL
MIC (Pseudomonas aeruginosa [34]): 8 µg/mL
MIC (Pseudomonas aeruginosa [35]): 32 µg/mL
MIC (Pseudomonas aeruginosa [36]): 64 µg/mL

C[C@@H](O)[C@H]1C(=O)N2C(C(=O)O)=C(SCCNC=N)C[C@H]12 [IMIPENEM ANHYDROUS]
MIC (Pseudomonas aeruginosa [11]): 8 µg/mL (≈ 26.7 µM)
MIC (Pseudomonas aeruginosa [12]): 1 µg/mL (≈ 3.34 µM)
MIC (Pseudomonas aeruginosa [37]): 1 µg/mL (≈ 3.34 µM)
MIC (Pseudomonas aeruginosa [13]): 32 µg/mL (≈ 107 µM)
MIC (Pseudomonas aeruginosa [14]): 4 µg/mL (≈ 13.4 µM)
MIC (Pseudomonas aeruginosa [15]): 128 µg/mL (≈ 428 µM)
MIC (Pseudomonas aeruginosa [38]): 16 µg/mL (≈ 53.4 µM)
MIC (Pseudomonas aeruginosa [16]): 0.5 µg/mL (≈ 1.67 µM)
MIC (Pseudomonas aeruginosa [17]): 64 µg/mL (≈ 214 µM)
MIC (Pseudomonas aeruginosa [18]): 64 µg/mL (≈ 214 µM)
MIC (Pseudomonas aeruginosa [19]): 32 µg/mL (≈ 107 µM)
MIC (Pseudomonas aeruginosa [39]): 32 µg/mL (≈ 107 µM)
MIC (Pseudomonas aeruginosa [20]): 16 µg/mL (≈ 53.4 µM)
MIC (Pseudomonas aeruginosa [21]): 8 µg/mL (≈ 26.7 µM)
MIC (Pseudomonas aeruginosa [22]): 32 µg/mL (≈ 107 µM)
MIC (Pseudomonas aeruginosa [23]): 32 µg/mL (≈ 107 µM)
MIC (Pseudomonas aeruginosa [24]): 16 µg/mL (≈ 53.4 µM)
MIC (Pseudomonas aeruginosa [25]): 16 µg/mL (≈ 53.4 µM)

CC(C)(O/N=C(\C(=O)N[C@@H]1C(=O)N2C(C(=O)[O-])=C(C[n+]3ccccc3)CS[C@H]12)c1csc(N)n1)C(=O)O [CEFTAZIDIME]
MIC (Pseudomonas aeruginosa [11]): 2 µg/mL (≈ 3.66 µM)
MIC (Pseudomonas aeruginosa [12]): > 256 µg/mL
MIC (Pseudomonas aeruginosa [37]): 1 µg/mL (≈ 1.83 µM)
MIC (Pseudomonas aeruginosa [13]): 16 µg/mL (≈ 29.3 µM)
MIC (Pseudomonas aeruginosa [14]): 256 µg/mL (≈ 468 µM)
MIC (Pseudomonas aeruginosa [15]): > 256 µg/mL
MIC (Pseudomonas aeruginosa [38]): 4 µg/mL (≈ 7.32 µM)
MIC (Pseudomonas aeruginosa [16]): 1 µg/mL (≈ 1.83 µM)
MIC (Pseudomonas aeruginosa [17]): 64 µg/mL (≈ 117 µM)
MIC (Pseudomonas aeruginosa [18]): 64 µg/mL (≈ 117 µM)
MIC (Pseudomonas aeruginosa [19]): 64 µg/mL (≈ 117 µM)
MIC (Pseudomonas aeruginosa [39]): 128 µg/mL (≈ 234 µM)
MIC (Pseudomonas aeruginosa [20]): 64 µg/mL (≈ 117 µM)
MIC (Pseudomonas aeruginosa [21]): 32 µg/mL (≈ 58.5 µM)
MIC (Pseudomonas aeruginosa [22]): 128 µg/mL (≈ 234 µM)
MIC (Pseudomonas aeruginosa [23]): 128 µg/mL (≈ 234 µM)
MIC (Pseudomonas aeruginosa [24]): > 256 µg/mL
MIC (Pseudomonas aeruginosa [25]): 64 µg/mL (≈ 117 µM)
